In US10189809B2, “SGC stimulators” (Ironwood Pharmaceuticals, Inc., priority 2010, dated 2019):
Like-named read-outs stand apart in the source and are kept apart here.

Target: soluble guanylate cyclase (sGC) (Homo sapiens (Human), UniProt Q02108+Q02153)
Experiment: sGC-HEK-cGMP assay run with SNP incubation (HEK WC assay)
Type: cell-based
Details: for EC50: in the presence of 10 uM SNP
Experimental: Human embryonic kidney cells (HEK293), endogenously expressing soluble guanylate cyclase (sGC), were used to evaluate the activity of test compounds. Compounds stimulating the sGC receptor should cause an increase in the intracellular concentration of cGMP. HEK 293 cells were seeded in Dulbecco's Modification of Eagle's Medium supplemented with fetal bovine serum (10% final) and L-glutamine (2 mM final) in a 200 μL volume at a density of 1×10^5 cells/well in a poly-D-lysine coated 96 well flat bottom plate and grown overnight at 37° C. Medium was aspirated and cells were washed with 1× Hank's Buffered Saline Salt Solution (200 μL). Cells were then incubated for 15 minutes at 37° C. with 0.5 mM 3-isobutyl-1-methylxanthine (200 μL). Test article and sodium nitroprusside were then added to the assay mixture (2 μL each) and incubated at 37° C. for 10 minutes. After the 10 minute incubation, the assay mixture was aspirated and 0.1M HCl (200 μL) was added to the cells. The plate was incubated at 4° C. for 30 minutes in the 0.1M HCl to stop the reaction and lysed the cells. The plates were then centrifuged at 1,200 g for 5 minutes at room temperature. Supernatants were collected and transferred to a new flat bottom 96 well plate for analysis. Vehicle controls were carried out using DMSO (1%). […] Samples were diluted with an equal volume of 1 M Ammonium Acetate (pH 7) to neutralize samples for better chromatography. […] EC50 values were calculated from concentration-response curves generated with GraphPad Prism Software.

[1] = read-out: HEK WC Assay (% Emax at 1 μM with 10 uM SNP)
[2] = read-out: HEK WC Assay (% Emax at 10 μM with 10 uM SNP)
[3] = read-out: HEK WC Assay (% Emax at 30 μM with 10 uM SNP)

Sequence of soluble guanylate cyclase (sGC) (Q02153 whole entry): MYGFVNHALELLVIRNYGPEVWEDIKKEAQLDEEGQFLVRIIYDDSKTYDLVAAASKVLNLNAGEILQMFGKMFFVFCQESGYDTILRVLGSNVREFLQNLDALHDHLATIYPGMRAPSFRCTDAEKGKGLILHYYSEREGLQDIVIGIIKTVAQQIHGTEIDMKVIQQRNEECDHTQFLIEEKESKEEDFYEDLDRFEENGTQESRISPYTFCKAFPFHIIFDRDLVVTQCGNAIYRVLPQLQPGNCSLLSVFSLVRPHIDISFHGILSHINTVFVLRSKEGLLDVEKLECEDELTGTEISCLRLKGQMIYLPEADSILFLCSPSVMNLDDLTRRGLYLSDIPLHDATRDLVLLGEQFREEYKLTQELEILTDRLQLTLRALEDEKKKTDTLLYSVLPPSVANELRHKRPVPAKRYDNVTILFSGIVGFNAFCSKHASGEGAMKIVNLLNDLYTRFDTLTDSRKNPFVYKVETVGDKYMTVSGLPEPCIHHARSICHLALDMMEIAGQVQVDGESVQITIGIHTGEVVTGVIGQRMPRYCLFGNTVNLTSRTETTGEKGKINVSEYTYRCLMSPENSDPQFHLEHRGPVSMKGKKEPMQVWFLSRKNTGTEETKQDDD
Sequence of soluble guanylate cyclase (sGC) (Q02108 whole entry): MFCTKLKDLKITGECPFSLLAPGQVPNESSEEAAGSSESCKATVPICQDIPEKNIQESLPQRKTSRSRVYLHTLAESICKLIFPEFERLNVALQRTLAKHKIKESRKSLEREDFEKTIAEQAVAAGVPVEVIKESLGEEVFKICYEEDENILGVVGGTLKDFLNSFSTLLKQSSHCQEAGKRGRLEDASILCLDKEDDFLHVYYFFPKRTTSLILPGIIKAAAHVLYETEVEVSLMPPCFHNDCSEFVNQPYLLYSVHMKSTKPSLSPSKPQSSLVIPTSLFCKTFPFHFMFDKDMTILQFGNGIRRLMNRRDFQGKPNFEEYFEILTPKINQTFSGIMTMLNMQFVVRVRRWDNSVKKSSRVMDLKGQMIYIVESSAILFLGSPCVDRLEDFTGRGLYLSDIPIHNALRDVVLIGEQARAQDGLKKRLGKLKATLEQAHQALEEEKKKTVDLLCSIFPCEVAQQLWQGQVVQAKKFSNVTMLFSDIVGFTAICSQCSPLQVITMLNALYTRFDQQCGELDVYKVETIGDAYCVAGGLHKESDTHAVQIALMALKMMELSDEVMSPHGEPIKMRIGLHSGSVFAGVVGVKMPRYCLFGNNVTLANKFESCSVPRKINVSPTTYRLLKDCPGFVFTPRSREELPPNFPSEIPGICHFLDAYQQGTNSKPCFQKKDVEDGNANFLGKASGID

| EC50 | Emax [1] | Emax [2] | Emax [3] | Emax at 10 µM (read-out: HEK WC Assay (% Emax at 10 μM/with 10 uM SNP)) | Emax at 30 µM (read-out: HEK WC Assay (% Emax at 30 μM/with 10 uM SNP)) | Structure (SMILES) |
| --- | --- | --- | --- | --- | --- | --- |
| 100 to 300 µM | 0 to 10% | 0 to 10% | 10 to 20% | – | – | Nc1nc(-c2cc(-c3ncco3)n(Cc3ccccc3F)n2)ncc1N=C(c1ccccc1)c1ccccc1 [Compound I-269] |
| < 20 µM | – | 40 to 60% | 60 to 80% | – | – | N#Cc1cnc(-c2cc(-c3ncco3)n(Cc3ccccc3F)n2)nc1O [Compound I-155] |
| < 20 µM | 40 to 60% | 40 to 60% | 60 to 80% | – | – | CCCC(F)(F)C(=O)Nc1cnc(-c2cc(-c3ccon3)n(Cc3ccccc3F)n2)nc1N [Compound I-252] |
| < 20 µM | 20 to 40% | 40 to 60% | 60 to 80% | – | – | CN(C)/C=N/c1cnc(-c2cc(-c3ccon3)n(Cc3ccccc3F)n2)nc1 [Compound I-249, N′-(2-(1-(2-fluorobenzyl)-5-(isoxazol-3-yl)-1H-pyrazol-3-yl)pyrimidin-5-yl)-N,N-dimethylformimidamide] |
| < 20 µM | 20 to 40% | 60 to 80% | 60 to 80% | – | – | Nc1cnc(-c2cc(-c3ccon3)n(Cc3ccccc3F)n2)nc1 [Compound I-262] |
| < 20 µM | 40 to 60% | 100 to 120% | 80 to 100% | – | – | CC(C)(CCl)C(=O)Nc1cnc(-c2cc(-c3ccon3)n(Cc3ccccc3F)n2)nc1N [Compound I-268] |
| 60 to 100 µM | 10 to 20% | 20 to 40% | 20 to 40% | – | – | CC(C)(Oc1ccccc1)C(=O)Nc1cnc(-c2cc(-c3ccon3)n(Cc3ccccc3F)n2)nc1N [Compound I-230] |
| 900 to 1200 µM | 0 to 10% | 0 to 10% | 0 to 10% | – | – | O=[N+]([O-])c1c(O)nc(-c2cc(-c3ccon3)n(Cc3ccccc3F)n2)nc1O [Compound I-282] |
| – | – | – | – | 0 to 10% | 0 to 10% | CS(=O)(=O)c1ccc(-c2cc(-c3ccccn3)nn2Cc2ccccc2F)nc1 [Compound I-73] |
| – | – | 100 to 120% | 80 to 100% | – | – | Nc1nc(-c2cc(-c3ccon3)n(Cc3ccccc3F)n2)ncc1NC(=O)C1CCCCC1 [Compound I-157] |
| < 20 µM | 20 to 40% | 60 to 80% | 60 to 80% | – | – | Nc1nc(-c2cc(-c3ccon3)n(Cc3ccccc3F)n2)ncc1N1Cc2ccccc2C1=O [Compound I-259] |
| 60 to 100 µM | 10 to 20% | 20 to 40% | 20 to 40% | – | – | O=S(=O)(c1cc(Cl)ccc1Cl)c1cnc(-c2cc(-c3ccon3)n(Cc3ccccc3F)n2)nc1O [Compound I-242] |
| < 20 µM | 40 to 60% | 60 to 80% | 80 to 100% | – | – | O=S(=O)(c1ccccc1)c1cnc(-c2cc(-c3ncco3)n(Cc3ccccc3F)n2)nc1O [Compound I-271] |
| – | – | 40 to 60% | 40 to 60% | – | – | CC(C)(O)c1cnc(-c2cc(-c3ncco3)n(Cc3ccccc3F)n2)nc1N [Compound I-146] |
| 300 to 600 µM | 0 to 10% | 0 to 10% | 0 to 10% | – | – | Oc1cc(O)nc(-c2cc(-c3ccon3)n(Cc3ccccc3F)n2)n1 [Compound I-261] |
| < 20 µM | 10 to 20% | 40 to 60% | 60 to 80% | – | – | CC(C)(C(=O)Nc1cnc(-c2cc(-c3ccon3)n(Cc3ccccc3F)n2)nc1N)n1cncn1 [Compound I-270] |
| < 20 µM | – | 40 to 60% | 60 to 80% | – | – | Fc1ccccc1Cn1nc(-c2nc(Cl)cc(-c3cccnc3)n2)cc1-c1ccon1 [Compound I-301] |

| EC50 | Emax [1] | Emax [2] | Emax [3] | Emax at 10 µM (read-out: HEK WC Assay (% Emax at 10 μM/with 10 uM SNP)) | Emax at 30 µM (read-out: HEK WC Assay (% Emax at 30 μM/with 10 uM SNP)) | Structure (SMILES) |
| --- | --- | --- | --- | --- | --- | --- |
| < 20 µM | 60 to 80% | 100 to 120% | 100 to 120% | – | – | C=CC(C)(C)C(=O)Nc1cnc(-c2cc(-c3ccon3)n(Cc3ccccc3F)n2)nc1N [Compound I-246] |
| < 20 µM | 20 to 40% | 60 to 80% | 80 to 100% | – | – | CCC(C)(C)C(=O)Nc1cnc(-c2cc(-c3ccon3)n(Cc3ccccc3F)n2)nc1N [Compound I-247] |
| – | – | 20 to 40% | 20 to 40% | – | – | Fc1ccccc1Cn1nc(-c2nc(Cl)cc(C(F)(F)F)n2)cc1-c1ccon1 [Compound I-273] |
| 40 to 60 µM | 20 to 40% | 20 to 40% | 20 to 40% | – | – | CC(C)(C)OC(=O)n1c(=O)[nH]c2nc(-c3cc(-c4ccon4)n(Cc4ccccc4F)n3)ncc21 [Compound I-312] |
| – | – | 0 to 10% | 10 to 20% | – | – | Fc1ccccc1Cn1nc(-c2ccccn2)cc1-n1cccn1 [Compound I-286] |
| 100 to 300 µM | 0 to 10% | 10 to 20% | 10 to 20% | – | – | CC(C)(C)[S+]([O-])Nc1cnc(-c2cc(-c3ccon3)n(Cc3ccccc3F)n2)nc1N[S+]([O-])C(C)(C)C (centres unmarked) [Compound I-250] |
| < 20 µM | 20 to 40% | 60 to 80% | 60 to 80% | – | – | Oc1nc(-c2cc(-c3ccon3)n(Cc3ccccc3F)n2)ncc1Cl [Compound I-266] |
| 600 to 900 µM | 0 to 10% | 0 to 10% | 0 to 10% | – | – | O=c1cc(O)oc2nc(-c3cc(-c4ccon4)n(Cc4ccccc4F)n3)nc(O)c12 [Compound I-248] |
| < 20 µM | 40 to 60% | 100 to 120% | 100 to 120% | – | – | [2H]C([2H])([2H])C(=O)Nc1cnc(-c2cc(-c3ccon3)n(Cc3ccccc3F)n2)nc1N [Compound I-263] |
| – | – | 20 to 40% | 20 to 40% | – | – | CS(=O)(=O)Nc1cnc(-c2cc(-c3ccon3)n(Cc3ccccc3F)n2)nc1N [Compound I-145] |
| 20 to 40 µM | 10 to 20% | 20 to 40% | 20 to 40% | – | – | CC(C)(C)S(=O)(=O)Nc1cnc(-c2cc(-c3ccon3)n(Cc3ccccc3F)n2)nc1N [Compound I-251] |
| < 20 µM | 80 to 100% | 100 to 120% | 80 to 100% | – | – | CC1(C(=O)Nc2cnc(-c3cc(-c4ccon4)n(Cc4ccccc4F)n3)nc2N)CC1(Cl)Cl (centres unmarked) [Compound I-260] |
| < 20 µM | 40 to 60% | 60 to 80% | 60 to 80% | – | – | C=C(C)C(=O)Nc1cnc(-c2cc(-c3ccon3)n(Cc3ccccc3F)n2)nc1N [Compound I-258] |
| – | – | 60 to 80% | 60 to 80% | – | – | Nc1ccnc(-c2cc(-c3ccco3)n(Cc3ccccc3F)n2)n1 [Compound I-284] |
| 300 to 600 µM | 20 to 40% | 40 to 60% | 0 to 10% | – | – | CC(C)(C)C(=O)Nc1cnc(-c2cc(-c3ccon3)n(Cc3ccccc3F)n2)nc1 [Compound I-264] |
| – | 20 to 40% | 60 to 80% | 80 to 100% | – | – | Fc1ccccc1Cn1nc(-c2ncc(F)c(S)n2)cc1-c1ccon1 [Compound I-267] |
| < 20 µM | 40 to 60% | 60 to 80% | 80 to 100% | – | – | CC(C)(CO)C(=O)Nc1cnc(-c2cc(-c3ccon3)n(Cc3ccccc3F)n2)nc1N [Compound I-265] |

| Structure (SMILES) | EC50 | Emax [1] | Emax [2] | Emax [3] | Emax at 10 µM (read-out: HEK WC Assay (% Emax at 10 μM/with 10 uM SNP)) | Emax at 30 µM (read-out: HEK WC Assay (% Emax at 30 μM/with 10 uM SNP)) |
| --- | --- | --- | --- | --- | --- | --- |
| CN(C)C(=O)Oc1cnc(-c2cc(-c3ccon3)n(Cc3ccccc3F)n2)nc1 [Compound I-274] | – | 20 to 40% | 60 to 80% | 60 to 80% | – | – |
